{
  "source": "ChEMBL document CHEMBL4376867",
  "about": "(J Med Chem, 2020)",
  "key": {"Cytochrome P450 2C9": {"target": "Cytochrome P450 2C9 (Homo sapiens, UniProt P11712)", "sequence (P11712 whole entry)": "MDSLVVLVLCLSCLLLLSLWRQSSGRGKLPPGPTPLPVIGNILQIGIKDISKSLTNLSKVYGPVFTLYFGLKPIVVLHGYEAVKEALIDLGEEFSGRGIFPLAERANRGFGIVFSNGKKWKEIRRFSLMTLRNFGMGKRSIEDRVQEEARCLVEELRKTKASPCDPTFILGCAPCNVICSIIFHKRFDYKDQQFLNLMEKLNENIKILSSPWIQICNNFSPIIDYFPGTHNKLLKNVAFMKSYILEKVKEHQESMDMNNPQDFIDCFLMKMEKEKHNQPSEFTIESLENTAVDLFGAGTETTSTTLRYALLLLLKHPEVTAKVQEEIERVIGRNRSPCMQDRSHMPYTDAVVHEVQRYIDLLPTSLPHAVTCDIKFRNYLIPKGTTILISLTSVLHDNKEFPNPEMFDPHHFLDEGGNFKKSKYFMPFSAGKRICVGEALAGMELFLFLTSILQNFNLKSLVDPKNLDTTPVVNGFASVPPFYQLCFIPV", "test": "Inhibition of CYP2C9 (unknown origin)", "format": "ADME"}, "Cytochrome P450 2C8": {"target": "T1, Cytochrome P450 2C8 (Homo sapiens, UniProt P10632)", "T1 sequence (P10632 whole entry)": "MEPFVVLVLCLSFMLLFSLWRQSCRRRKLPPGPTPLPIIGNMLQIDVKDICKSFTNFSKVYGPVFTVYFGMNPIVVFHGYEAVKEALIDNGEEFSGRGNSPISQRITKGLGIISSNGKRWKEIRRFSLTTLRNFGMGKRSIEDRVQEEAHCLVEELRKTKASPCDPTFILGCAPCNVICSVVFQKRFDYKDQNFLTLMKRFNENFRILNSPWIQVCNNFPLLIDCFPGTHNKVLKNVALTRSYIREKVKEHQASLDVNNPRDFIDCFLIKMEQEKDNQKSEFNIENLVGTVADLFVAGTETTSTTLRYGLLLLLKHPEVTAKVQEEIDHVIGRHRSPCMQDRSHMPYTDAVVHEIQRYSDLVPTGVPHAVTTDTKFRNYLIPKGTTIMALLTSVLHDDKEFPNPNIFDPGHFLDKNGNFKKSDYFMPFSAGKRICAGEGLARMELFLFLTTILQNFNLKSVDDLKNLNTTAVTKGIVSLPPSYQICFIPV", "test": "Inhibition of CYP2C8 (unknown origin)", "format": "ADME"}, "[1]": {"test": "Clearance in Han Wistar rat hepatocytes at 1 uM measured upto 90 mins by LC-MS/MS analysis", "format": "ADME, cell-based, Hepatocyte"}, "[2]": {"test": "Distribution coefficient, log D of compound at pH 7.5", "format": "physicochemical", "settings": "octanol/water"}, "[3]": {"test": "Hepatic extraction in Wistar rat at 0.30 mg/kg, iv via bolus or 0.30 mg/kg, po measured upto 24 hrs by LC-MS/MS analysis", "settings": "in vivo, 0.3 mg/kg"}, "[4]": {"test": "Clearance in Wistar rat at 0.30 mg/kg, iv via bolus measured upto 24 hrs by LC-MS/MS analysis", "format": "ADME, organism-based", "settings": "in vivo, 0.3 mg/kg"}, "[5]": {"test": "Clearance in human liver microsomes at 1 uM measured upto 60 mins in presence of NADP by LC-MS/MS analysis", "format": "ADME, Microsome", "settings": "1 h"}, "Cytochrome P450 2D6": {"target": "Cytochrome P450 2D6 (Homo sapiens, UniProt P10635)", "sequence (P10635 whole entry)": "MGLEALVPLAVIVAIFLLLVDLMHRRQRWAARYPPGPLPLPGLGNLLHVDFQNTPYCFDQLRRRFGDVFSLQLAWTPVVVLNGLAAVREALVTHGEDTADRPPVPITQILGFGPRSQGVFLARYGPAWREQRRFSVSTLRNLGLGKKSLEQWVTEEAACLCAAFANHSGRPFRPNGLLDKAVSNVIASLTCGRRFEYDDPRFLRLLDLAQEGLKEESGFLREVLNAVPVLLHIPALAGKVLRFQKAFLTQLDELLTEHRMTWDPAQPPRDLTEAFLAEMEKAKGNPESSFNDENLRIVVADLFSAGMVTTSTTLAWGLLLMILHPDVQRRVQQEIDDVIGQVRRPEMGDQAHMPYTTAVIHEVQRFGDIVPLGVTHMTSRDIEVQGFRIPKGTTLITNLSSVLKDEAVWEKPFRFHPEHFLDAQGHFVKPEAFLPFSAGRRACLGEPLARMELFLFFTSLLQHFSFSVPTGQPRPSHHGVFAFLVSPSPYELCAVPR", "test": "Inhibition of CYP2D6 (unknown origin)", "format": "ADME"}, "[6]": {"test": "Hepatic extraction ratio in human liver microsomes at 1 uM measured upto 60 mins in presence of NADP by LC-MS/MS analysis"}, "Mus musculus [7]": {"tested_on": "Mus musculus", "test": "Time required for unbound plasma concentration to reach IC50 for IKKepsilon/TBK1 in human MDB-MB-231 cells transduced with lentiviral vector expressing human IRF3 in NMRI mouse at 100 mg/kg, po", "format": "ADME, organism-based", "settings": "in vivo"}, "Cytochrome P450 3A4 [8]": {"target": "T2, Cytochrome P450 3A4 (Homo sapiens, UniProt P08684)", "T2 sequence (P08684 whole entry)": "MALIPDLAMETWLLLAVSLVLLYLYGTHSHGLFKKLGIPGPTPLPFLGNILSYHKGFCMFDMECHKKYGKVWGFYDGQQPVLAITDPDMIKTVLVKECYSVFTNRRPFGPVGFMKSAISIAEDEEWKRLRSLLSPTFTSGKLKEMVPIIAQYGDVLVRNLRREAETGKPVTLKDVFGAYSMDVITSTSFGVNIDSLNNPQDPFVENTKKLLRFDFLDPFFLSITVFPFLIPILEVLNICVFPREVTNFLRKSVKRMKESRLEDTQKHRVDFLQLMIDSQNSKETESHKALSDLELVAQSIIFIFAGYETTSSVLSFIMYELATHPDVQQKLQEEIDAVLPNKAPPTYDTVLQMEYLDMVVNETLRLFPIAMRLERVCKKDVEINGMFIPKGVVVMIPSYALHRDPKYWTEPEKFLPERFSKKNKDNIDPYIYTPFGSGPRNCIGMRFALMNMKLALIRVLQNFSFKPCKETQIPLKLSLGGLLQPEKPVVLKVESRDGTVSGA", "test": "Inhibition of CYP3A4 (unknown origin)", "format": "ADME"}, "[9]": {"test": "Volume of distribution at steady state in Wistar rat at 0.30 mg/kg, iv via bolus or 0.30 mg/kg, po measured upto 24 hrs by LC-MS/MS analysis", "format": "ADME, organism-based", "settings": "in vivo, 0.3 mg/kg, read-out: Vdss"}, "[10]": {"test": "Hepatic extraction ratio in rat liver microsomes at 1 uM measured upto 60 mins by LC-MS/MS analysis"}, "[11]": {"test": "Toxicity in NMRI nude mouse xenografted with human SK-MEL-2 cells harboring NRAS/TP53 mutation assessed as body weight loss at 200 mg/kg, po bid for 35 days relative to control", "format": "organism-based", "settings": "in vivo, 840 h"}, "SK-MEL-2 [12]": {"tested_on": "SK-MEL-2", "test": "Antitumor activity against human SK-MEL-2 cells harboring NRAS/TP53 mutation xenografted in NMRI nude mouse assessed as relative tumor area by measuring T/C ratio at 200 mg/kg, po bid measured after 35 days compound treatment", "format": "functional"}, "Cytochrome P450 3A4 [13]": {"target": "T2, Cytochrome P450 3A4", "test": "Inhibition of CYP3A4 (unknown origin) measured under preincubated conditions", "format": "ADME"}, "[14]": {"test": "Clearance in rat liver microsomes at 1 uM measured upto 60 mins by LC-MS/MS analysis", "format": "ADME, Microsome", "settings": "1 h"}, "Mus musculus [15]": {"tested_on": "Mus musculus", "test": "Time required for unbound plasma concentration to reach IC50 for recombinant full length human N-terminal His-tagged TBK1 in NMRI mouse at 100 mg/kg, po", "format": "ADME, organism-based", "settings": "in vivo"}, "[16]": {"test": "Solubility of compound in water at pH 6.5", "format": "physicochemical"}, "[17]": {"target": "Voltage-gated inwardly rectifying potassium channel KCNH2 (Homo sapiens, UniProt Q12809)", "sequence (Q12809 whole entry)": "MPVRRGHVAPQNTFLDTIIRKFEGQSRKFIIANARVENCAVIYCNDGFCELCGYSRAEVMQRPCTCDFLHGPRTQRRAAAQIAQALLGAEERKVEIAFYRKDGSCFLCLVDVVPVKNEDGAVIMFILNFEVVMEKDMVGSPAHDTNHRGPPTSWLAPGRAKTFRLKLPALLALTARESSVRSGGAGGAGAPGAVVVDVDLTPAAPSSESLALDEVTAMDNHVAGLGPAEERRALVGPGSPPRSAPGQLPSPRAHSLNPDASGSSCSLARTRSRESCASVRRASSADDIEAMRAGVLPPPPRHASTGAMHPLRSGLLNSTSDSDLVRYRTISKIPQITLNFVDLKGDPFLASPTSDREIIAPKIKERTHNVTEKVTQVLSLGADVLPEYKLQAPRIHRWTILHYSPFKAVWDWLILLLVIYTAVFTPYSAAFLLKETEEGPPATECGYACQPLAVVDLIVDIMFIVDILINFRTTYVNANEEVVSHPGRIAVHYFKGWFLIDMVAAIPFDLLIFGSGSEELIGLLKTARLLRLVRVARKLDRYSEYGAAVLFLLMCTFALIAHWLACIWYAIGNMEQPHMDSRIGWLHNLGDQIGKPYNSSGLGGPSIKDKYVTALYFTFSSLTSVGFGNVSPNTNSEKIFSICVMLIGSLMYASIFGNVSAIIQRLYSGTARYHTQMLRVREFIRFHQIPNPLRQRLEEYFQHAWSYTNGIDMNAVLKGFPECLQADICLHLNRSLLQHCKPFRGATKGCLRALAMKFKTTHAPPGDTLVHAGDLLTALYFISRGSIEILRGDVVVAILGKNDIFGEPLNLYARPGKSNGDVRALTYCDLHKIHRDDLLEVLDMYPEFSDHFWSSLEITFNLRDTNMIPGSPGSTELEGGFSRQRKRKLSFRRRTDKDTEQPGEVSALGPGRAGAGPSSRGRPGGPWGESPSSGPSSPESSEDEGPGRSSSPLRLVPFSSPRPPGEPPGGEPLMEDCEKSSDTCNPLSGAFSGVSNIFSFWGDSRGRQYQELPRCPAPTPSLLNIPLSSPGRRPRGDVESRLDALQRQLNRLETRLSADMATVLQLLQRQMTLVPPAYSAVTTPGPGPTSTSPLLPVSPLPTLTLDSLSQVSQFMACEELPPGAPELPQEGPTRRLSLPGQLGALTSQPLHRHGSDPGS", "test": "Inhibition of human ERG"}, "Cytochrome P450 1A2": {"target": "T3, Cytochrome P450 1A2 (Homo sapiens, UniProt P05177)", "T3 sequence (P05177 whole entry)": "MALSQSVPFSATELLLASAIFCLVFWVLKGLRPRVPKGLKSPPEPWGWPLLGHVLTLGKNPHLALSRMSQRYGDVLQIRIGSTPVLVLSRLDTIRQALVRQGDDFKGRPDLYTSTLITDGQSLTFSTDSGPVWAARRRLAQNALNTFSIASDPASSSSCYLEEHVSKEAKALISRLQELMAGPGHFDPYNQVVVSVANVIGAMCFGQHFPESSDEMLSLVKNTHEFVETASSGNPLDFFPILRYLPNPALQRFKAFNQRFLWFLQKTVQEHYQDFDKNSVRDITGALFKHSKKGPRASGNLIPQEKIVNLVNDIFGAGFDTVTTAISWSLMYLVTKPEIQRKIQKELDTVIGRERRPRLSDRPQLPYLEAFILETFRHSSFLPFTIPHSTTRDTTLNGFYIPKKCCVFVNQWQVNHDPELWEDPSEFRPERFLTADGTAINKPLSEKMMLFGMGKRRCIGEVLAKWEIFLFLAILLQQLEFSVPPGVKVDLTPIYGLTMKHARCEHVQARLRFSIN", "test": "Inhibition of CYP1A2 (unknown origin)", "format": "ADME"}, "[18]": {"test": "Toxicity in NMRI mouse xenografted with human SK-MEL-2 cells assessed as maximum tolerated dose administered orally bid for 35 days", "settings": "in vivo, po"}, "[19]": {"test": "Oral bioavailability in Wistar rat at 0.30 mg/kg measured upto 24 hrs by LC-MS/MS analysis", "format": "ADME, organism-based", "settings": "in vivo, 0.3 mg/kg"}, "SK-MEL-2 [20]": {"tested_on": "SK-MEL-2", "test": "Antitumor activity against human SK-MEL-2 cells harboring NRAS/TP53 mutation xenografted in NMRI nude mouse assessed as tumor weight by measuring T/C ratio at 200 mg/kg, po bid measured after 35 days compound treatment", "format": "functional"}, "[21]": {"test": "Hepatic extraction ratio in Han Wistar rat hepatocytes at 1 uM measured upto 90 mins by LC-MS/MS analysis"}, "[22]": {"test": "Terminal half life in Wistar rat at 0.30 mg/kg, iv via bolus or 0.30 mg/kg, po measured upto 24 hrs by LC-MS/MS analysis", "format": "ADME, organism-based", "settings": "in vivo, 0.3 mg/kg, read-out: beta t1/2 (converted)"}},
  "data": [
    {"molecule": "C[C@H](c1ccnc(Nc2nc3ccc(-c4cc(N(C)C)ncn4)cc3[nH]2)c1)N1CCN(C(=O)CC(F)(F)F)CC1", "note": "[BAY-985]", "values": [
      {"measurement": "IC50", "setting": "Cytochrome P450 2C9", "value": 17, "unit": "µM"},
      {"measurement": "IC50", "setting": "Cytochrome P450 2C8", "value": 0.86, "unit": "µM"},
      {"measurement": "CLH", "setting": "[1]", "value": 28.3, "unit": "mL/min/kg"},
      {"measurement": "logD", "setting": "[2]", "value": 2.5},
      {"measurement": "hepatic extraction ratio at 24 h", "setting": "[3]", "value": 0.95},
      {"measurement": "clearance", "setting": "[4]", "value": 66.7, "unit": "mL/min/kg"},
      {"measurement": "CLH", "setting": "[5]", "value": 8.3, "unit": "mL/min/kg"},
      {"measurement": "IC50", "setting": "Cytochrome P450 2D6", "value": "> 20", "unit": "µM"},
      {"measurement": "hepatic extraction ratio at 1 h, 1 µM", "setting": "[6]", "value": 0.38},
      {"measurement": "Time", "setting": "Mus musculus [7]", "value": 11, "unit": "h"},
      {"measurement": "IC50", "setting": "Cytochrome P450 3A4 [8]", "value": "> 20", "unit": "µM"},
      {"measurement": "Vd", "setting": "[9]", "value": 2.9, "unit": "L/kg"},
      {"measurement": "hepatic extraction ratio at 1 h, 1 µM", "setting": "[10]", "value": 0.4},
      {"measurement": "Activity", "setting": "[11]", "value": "< 10", "unit": "%"},
      {"measurement": "T/C", "setting": "SK-MEL-2 [12]", "value": 0.8},
      {"measurement": "IC50", "setting": "Cytochrome P450 3A4 [13]", "value": "> 20", "unit": "µM"},
      {"measurement": "CLH", "setting": "[14]", "value": 28.3, "unit": "mL/min/kg"},
      {"measurement": "Time", "setting": "Mus musculus [15]", "value": 10, "unit": "h"},
      {"measurement": "solubility", "setting": "[16]", "value": 0.8, "unit": "µg/mL"},
      {"measurement": "IC50", "setting": "[17]", "value": 4.7, "unit": "µM"},
      {"measurement": "IC50", "setting": "Cytochrome P450 1A2", "value": "> 20", "unit": "µM"},
      {"measurement": "MTD at 840 h", "setting": "[18]", "value": 200, "unit": "mg/kg"},
      {"measurement": "bioavailability", "setting": "[19]", "value": 11, "unit": "%"},
      {"measurement": "T/C", "setting": "SK-MEL-2 [20]", "value": 0.6},
      {"measurement": "hepatic extraction ratio at […], 1 µM", "setting": "[21]", "value": 0.4},
      {"measurement": "half-life", "setting": "[22]", "value": 47.4, "unit": "min"}
    ]}
  ]
}
